We go through seven compounds from ChEMBL document CHEMBL4184099, “Fragment-based discovery of a potent NAMPT inhibitor” (Bioorg Med Chem Lett, 2018).

Test [1] addresses T1, Nicotinamide phosphoribosyltransferase (Homo sapiens, UniProt P43490). Put plainly: Inhibition of human full length C-terminal flag/His-tagged NAMPT (1 to 491 residues) expressed in HEK293-6E cells by TR-FRET assay.
Target sequence in this assay (P43490 whole entry, the tested form may be a part): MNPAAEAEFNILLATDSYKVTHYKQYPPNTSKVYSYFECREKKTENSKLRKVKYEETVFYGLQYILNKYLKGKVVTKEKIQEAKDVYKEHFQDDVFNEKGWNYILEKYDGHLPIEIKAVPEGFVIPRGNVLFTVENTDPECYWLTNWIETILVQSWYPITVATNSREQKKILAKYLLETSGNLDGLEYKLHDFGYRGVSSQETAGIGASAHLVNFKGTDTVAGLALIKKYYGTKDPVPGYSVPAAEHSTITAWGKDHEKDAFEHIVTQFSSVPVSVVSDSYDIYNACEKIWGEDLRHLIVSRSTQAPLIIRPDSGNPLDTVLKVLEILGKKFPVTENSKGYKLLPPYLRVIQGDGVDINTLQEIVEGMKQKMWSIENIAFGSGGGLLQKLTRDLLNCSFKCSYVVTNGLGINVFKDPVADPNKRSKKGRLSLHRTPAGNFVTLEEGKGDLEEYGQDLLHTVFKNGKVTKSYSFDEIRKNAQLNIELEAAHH
In test [2] the target is T1, Nicotinamide phosphoribosyltransferase. The test is described as follows: Inhibition of NAM binding to human full length C-terminal flag/His-tagged NAMPT (1 to 491 residues) at 400 uM by STD-NMR spectroscopic analysis relative to control.
Target sequence in this assay (P43490 whole entry, looked up, the tested form may be a part): as the sequence (P43490 whole entry, the tested form may be a part) above

For the compound `O=C1C2CCC2C(=O)N1CCc1ccccn1` (stereo unspecified), the IC50 in test [1] was > 1000 µM. The compound also came in with an inhibition in test [2] of 80%. In test [1], `CC(C)CCNC(=O)c1ccc(NC(=O)Nc2ccc3nc[nH]c3c2)cc1` gave an IC50 of 0.08 µM.

The compound `O=C1OCCC/C1=C\Nc1ccccc1` returned an IC50 in test [1] of 10 µM. Still for that read-out and setting: with `O=C(Cc1ccccc1)Nc1ccc2nc[nH]c2c1` the figure was 90 µM. Regarding `CCCc1cc(=O)[nH]c(Nc2ccccc2F)n1`, 360 µM corresponded to half-maximal inhibition in test [1] (IC50). This compound had an inhibition in test [2] of 80%. `Cc1ccc(Cn2nnc3cc(C(N)=O)ccc32)cc1` yielded an IC50 in test [1] of 8 µM. The same compound showed an inhibition in test [2] of 80%.

In turn, `O=C(NCc1ccncc1)Nc1ccc(F)c(F)c1` showed an IC50 in test [1] of 850 µM. The same compound came in with an inhibition in test [2] of 80%.
